Data as given in PubChem BioAssay AID266 (DTP/NCI, 2004).
“And” between values parts separate entries of the source, which are not always exact repeats. Identical values can stand only once. Results filed as inconclusive are left out. Starred links: 1 amine or outer side, 2 acyl side, 3 side chain; linkers in the order of their positions; H or OH if unused. Positions of bridges follow the written chain, without caps; N, C: chain ends. Non-standard residues stand in square brackets, D forms with d. Residues, ends and D or L forms follow the SMILES beside them. Chains are numbered I, II in the order given. Actinocin(9to1) = Cc1c2oc3c(C)ccc(C(=O)[*:1])c3nc-2c(C(=O)[*:2])c(N)c1=O; aThr = C[C@H](O)[C@H](N)C(=O)O; NMeV = CN[C@H](C(=O)O)C(C)C; Sar = CNCC(=O)O

Tested on: Nude mice, LX-1 lung xenograft intrarenal, tumor weight T/C
Test: NCI In Vivo Anticancer Drug Screen. Data for tumor model Human Lung LX-1 Xenograft (intrarenal inoculation) in NU/NU BALB/C (nude) mice
Settings: endpoint: mean tumor weight change, higher = larger tumour
Protocol: The antitumor activity of compounds was measured in mice bearing transplantable tumors. Survival or tumor size were measured and the results are expressed as the measurement made in the treated group (T) divided by the measurement made in the vehicle treated control group (C). The tumor model used in this assay is Human Lung LX-1 Xenograft (intrarenal inoculation) in NU/NU BALB/C (nude) mice

[1] = dose: 300.0 mg/kg/injection, schedule: Q04DX003 (sc), vehicle: saline
[2] = dose: 600.0 mg/kg/injection, schedule: Q04DX003 (sc), vehicle: saline
[3] = dose: 1200.0 mg/kg/injection, schedule: Q04DX003 (sc), vehicle: saline
[4] = dose: 50.0 mg/kg/injection, schedule: Q01DX010 (sc), vehicle: saline
[5] = dose: 100.0 mg/kg/injection, schedule: Q01DX010 (sc), vehicle: saline
[6] = dose: 166.66 mg/kg/injection, schedule: Q04DX003 (sc), vehicle: saline
[7] = dose: 200.0 mg/kg/injection, schedule: Q01DX010 (sc), vehicle: saline
[8] = dose: 666.65 mg/kg/injection, schedule: Q04DX003 (sc), vehicle: saline

In the case of CCCCCc1cc(O)c2c(c1)OC(C)(C)[C@@H]1CCC(C)=C[C@@H]21, the T/C (dose: 150.0 mg/kg/injection, schedule: Q04DX003 (sc), vehicle: other) is reported as 94 % of control, the T/C (dose: 300.0 mg/kg/injection, schedule: Q04DX003 (sc), vehicle: other) is reported as 91 % of control and the T/C (dose: 600.0 mg/kg/injection, schedule: Q04DX003 (sc), vehicle: other) is reported as 76 % of control. The T/C (dose: 1200.0 mg/kg/injection, schedule: Q04DX003 (sc), vehicle: other) was 90 % of control.
With CO[C@H](/C(C)=C/C=C/C(C)=C/c1coc(C)n1)[C@H](C)[C@H]1C[C@@H](O)[C@@]2(C)O[C@H]2/C=C/[C@@H](C)[C@@H]2C[C@@H](CC(=O)O2)C[C@H]2O[C@@H]2C(=O)O1 the T/C (dose: 0.13 mg/kg/injection, schedule: Q04DX003 (sc), vehicle: Klucel (hydroxypropylcellulose) (HPC)) was 105 % of control and the T/C (dose: 0.25 mg/kg/injection, schedule: Q04DX003 (sc), vehicle: Klucel (hydroxypropylcellulose) (HPC)) was 95 % of control.
With CS(C)=O the T/C (dose: 750.0 mg/kg/injection, schedule: Q01DX010 (sc), vehicle: saline) was 88 % of control and the T/C (dose: 6000.0 mg/kg/injection, schedule: Q01DX010 (sc), vehicle: saline) was 67 % of control.
For CCN(CC)CCOCCO, the T/C (dose: 150.0 mg/kg/injection, schedule: Q04DX003 (sc), vehicle: saline) was 109 % of control, the T/C [1] was 105 % of control and the T/C [2] was 86 % of control. The T/C [3] was 77 % of control.
O=C(CCBr)N1CCN(C(=O)CCBr)CC1 was tested, and the T/C (dose: 50.0 mg/kg/injection, schedule: Q01DX010 (sc), vehicle: Klucel (hydroxypropylcellulose) (HPC)) was 48 % of control.
With NC(CCC(=O)NC(CS)C(=O)NCC(=O)O)C(=O)O (stereo unspecified) the T/C [1] was 97 % of control, the T/C [2] was 69 % of control and the T/C [3] was 74 % of control. The T/C (dose: 2400.0 mg/kg/injection, schedule: Q04DX003 (sc), vehicle: saline) was 121 % of control.
With NC1=NCN(C2OC(CO)C(O)C2O)C(=O)N1 (stereo unspecified) the T/C (dose: 25.0 mg/kg/injection, schedule: Q01DX010 (sc), vehicle: saline) was 86 % of control, the T/C [4] was 180 % of control and the T/C [5] was 112 % of control. The T/C [6] was 158 % of control, the T/C [7] was 84 % of control and the T/C (dose: 333.32 mg/kg/injection, schedule: Q04DX003 (sc), vehicle: saline) was 55 % of control. The T/C [8] was 88 % of control.
In the case of O=NN(CCCl)C(=O)NC1OC(CO)C(O)C(O)C1O (stereo unspecified), the T/C (dose: 5.0 mg/kg/injection, schedule: Q04DX003 (sc), vehicle: saline) is reported as 86 % of control, the T/C (dose: 10.0 mg/kg/injection, schedule: Q04DX003 (sc), vehicle: saline) is reported as 55 % of control and the T/C (dose: 20.0 mg/kg/injection, schedule: Q04DX003 (sc), vehicle: saline) is reported as 66 % of control.
For CNNCc1ccc(C(=O)NC(C)C)cc1, the T/C (dose: 50.0 mg/kg/injection, schedule: Q01DX010 (ip), vehicle: saline) was -66 % of control, the T/C [4] was 2 % of control and 11 % of control and the T/C (dose: 100.0 mg/kg/injection, schedule: Q01DX010 (ip), vehicle: saline) was -100 % of control. For the same molecule, the T/C [5] was 8 % of control, the T/C [6] was 5 % of control and the T/C [7] was -71 % of control. For the same molecule, the T/C (dose: 333.33 mg/kg/injection, schedule: Q04DX003 (sc), vehicle: saline) was -38 % of control, the T/C (dose: 400.0 mg/kg/injection, schedule: Q01DX010 (sc), vehicle: saline) was -65 % of control and the T/C [8] was -14 % of control.
With C[C@@]1(CO)[C@H](O)CC[C@@]2(C)[C@H]1CC[C@H]1C[C@@H]3C[C@@]12CC[C@@]3(O)COC(=O)CN the T/C (dose: 100.0 mg/kg/injection, schedule: Q01DX010 (sc), vehicle: saline + alcohol) was 109 % of control and the T/C (dose: 200.0 mg/kg/injection, schedule: Q01DX010 (sc), vehicle: saline + alcohol) was 54 % of control.
In the case of Cc1c2oc3c(C)ccc(C(=O)N[C@@H]4C(=O)N[C@H](C(C)C)C(=O)N5CCC[C@H]5C(=O)N(C)CC(=O)N(C)[C@@H](C(C)C)C(=O)O[C@H]4C)c3nc-2c(C(=O)N[C@@H]2C(=O)N[C@H](C(C)C)C(=O)N3CCC[C@H]3C(=O)N(C)CC(=O)N(C)[C@@H](C(C)C)C(=O)O[C@H]2C)c(N)c1=O (I: [aThr][dV]P[Sar][NMeV] / II: [aThr][dV]P[Sar][NMeV]; ester I:1-I:C, II:1-II:C; linker I:N-II:N via Actinocin(9to1)), the T/C (dose: 50.0 micrograms/kg/injection, schedule: Q01DX010 (sc), vehicle: saline) is reported as 35 % of control and the T/C (dose: 100.0 micrograms/kg/injection, schedule: Q01DX010 (sc), vehicle: saline) is reported as 11 % of control.
CNc1nc(N(C)C)nc(N(C)C)n1 was tested, and the T/C (dose: 30.0 mg/kg/injection, schedule: Q01DX010 (sc), vehicle: other) was 169 % of control and the T/C (dose: 60.0 mg/kg/injection, schedule: Q01DX010 (sc), vehicle: other) was 29 % of control.
With Cc1c(-c2ccc(-c3ccccc3F)cc2)nc2ccc(F)cc2c1C(=O)O the T/C (dose: 6.9 mg/kg/injection, schedule: Q01DX009 (ip), vehicle: water) was 7 % of control and 13 % of control and 31 % of control, the T/C (dose: 19.2 mg/kg/injection, schedule: Q01DX009 (ip), vehicle: water) was 5 % of control and 14 % of control and 21 % of control and the T/C (dose: 32.0 mg/kg/injection, schedule: Q01DX009 (ip), vehicle: water) was 15 % of control and 17 % of control.
With CC1CCC(n2cnc3c(Cl)ncnc32)O1 (stereo unspecified) the T/C (dose: 300.0 mg/kg/injection, schedule: Q04DX003 (sc), vehicle: Klucel (hydroxypropylcellulose) (HPC)) was 81 % of control.
